Results on seven substances are retold here after patent US9334314B2, “Peptide compounds derived from melanotransferrin and uses thereof” (Theratechnologies Inc., priority 2011, dated 2016).

For series [1], the system named is Human NCI-H460 lung carcinoma tumor xenograft. Nature of the series: Xenograft model antitumor assay, NCI-H460. Type of series: in vivo, nude mice. Particulars: 40 mg/Kg/day; for inhibition of NCI-460 tumor growth: nude mice (FIG. 5A); for NCI-460 tumor growth: nude mice (FIGS. 3A to 3C). As for the experimental part: (§1) For tumor cell inoculation in nude mice, U-87 MG or NCI-H460 cells were harvested by trypsinization using a trypsin/EDTA solution. Cells were washed two times with phosphate-buffered saline Ca^2+—Mg^2+ free (PBS-CMF) and centrifuged. The resulting pellet was resuspended in 1% methyl-cellulose in serum-free EMEM at a concentration of 2.5×10^6 cells per 100 μL. Specific pathogen-free, female Crl:CD-1®-nuBR nude mice were anesthetized by O2/isoflurane inhalation and tumors were established by subcutaneous injection of 100 μL from cell suspension into the right flank. Tumors were measured in O2/isoflurane anesthetized mice twice a week using a digital caliper and tumor volume was calculated as: π/6×length×width^2. When the first mouse from control group held a tumor reaching 1000 mm^3, tumors were photographed and mice from every group were sacrificed. Experiments were performed on 8 animals for each group. Recombinant sMTf treatment toxicity was evaluated by monitoring the body weight of control and treated mice, considering that a weight loss>20% results in a toxic effect.

The test system of series [2] is in vivo neovascularisation induced by the growth factors FGF-2 and VEGF. Kind of series: Matrigel plug angiogenesis assay. Particulars: induced by FGF-2 and VEGF, nude mice, 7 days (FIG. 7). As for the experimental part:
Angiogenesis is considered to be indicated by the growth of blood vessels from subcutaneous tissue into a solid piece of Matrigel™. Specific pathogen-free, female Crl:CD-1®-nuBR nude mice were obtained from Charles River Laboratories (Lasalle, QC). All of the mice used were 5-10 weeks of age. Prior to injection, heparin was incubated with or without bFGF (250 ng/mL) and VEGF165 (200 ng/mL) for 5 min, then 1 mL of MEM was added and the mixture diluted into phenol red-free Matrigel™ on ice for a final concentration of 12.4 μg/mL heparin. Then, specific pathogen-free, female Crl:CD-1®-nuBR nude mice were subcutaneously injected under anesthesia in the right flank with 0.5 mL of Matrigel™ alone or with Matrigel™ containing bFGF and VEGF. After 7 days, mice were sacrificed and Matrigel™ implants were harvested, washed with PBS and photographed. The remaining implants were immediately frozen and lyophilized overnight in order to evaluate the hemoglobin (Hb) concentrations. Testing of anti-angiogenic substances was initiated at the time of Matrigel™ implantation. Samples were then crushed and resuspended in 0.1% Triton™ X-100. Samples were mixed frequently for 1 h and centrifuged at 12,000×g for 15 min to remove particles. The concentration of hemoglobin (Hb) in the supernatant was then determined directly by measuring the absorbance at 405 nm and compared with a standard curve of purified Hb Hemoglobin content was expressed in μg Hb/mg of dried sample.

Series [3] deals with Human U87 glioblastoma tumor xenograft. Nature of the series: Xenograft model antitumor assay, U87. Particulars: 40 mg/Kg/day; for inhibition of U87 tumor growth: nude mice (FIG. 5B); for U87 tumor growth: nude mice (FIGS. 4A and 4B). Type of series: in vivo, nude mice. As for the experimental part: as §1
In series [4] the test system is HMEC-1 endothelial cells. Nature of the series: In vitro cell migration, HMEC-1 (Transwell / modified Boyden chambers). It is filed as cell-based. Particulars: various concentrations, dose-dependent manner (FIG. 2C). On the procedure: (§2) HMEC-1 and NCI-H460 cell migration was performed using Transwell filters (8 μm pore size) pre-coated with 0.15% gelatin for 2 hours at 37° C. or overnight at 4° C. The Transwell filters were washed once with PBS and assembled in 24-well plates. To study the effect of sMTf-derived peptides on cell migration, the lower chambers were filled with 300 μL of serum-free cell culture medium with or without various concentrations of peptides (2×). […] Approximately 50 000 cells (HMEC-1) and 100 000 cells (NCI-H460) were resuspended in 100 μL of serum free medium and added into the upper chamber of each Transwell. Then, 400 μL of serum free medium were added into the lower chamber with or without various concentrations of peptides (2×). After 1 hour incubation, 300 μL of cell culture medium containing 20% serum were added in the lower chamber to stimulate cell migration (final peptide concentration 1×). The plates were then placed at 37° C. in 5% CO2195% air for 4 hours (HMEC-1) or 18 hours (NCI-H460). Cells that had migrated to the lower surface of the filters were fixed for 30 minutes with 10% formalin, stained 30 minutes with 0.1% crystal violet/20% MeOH, and washed twice with PBS. […] The cell migration was quantified in four fields per filters at 50× magnification using microscopy computer-assisted imaging (Northern Eclipse™ software). Results are expressed as a percentage of cell migration of treated cells compared to untreated cells.

The test system of series [5] is NCI-H460 pulmonary carcinoma cells. Particulars: up to 50 μM, 24 hours incubation (FIG. 6). As for the experimental part:
(§3) sMTf-derived peptides cellular toxicity on HMEC-1 and NCI-H460 were performed using [methyl-^3H]-thymidine incorporation assay. […] Approximately 5000 cells (HMEC-1 and NCI-H460) were resuspended with 200 μL of fresh culture medium, seeded into white 96-wells plate and placed at 37° C. in 5% CO2/95% air. After 24 hours, the medium was removed and 200 μL of serum-free cell culture medium was added to synchronize the cells. After another 24 hours, the medium was removed and 200 μL of fresh complete medium with or without various peptide concentrations were added. After 24 hours incubation with the peptides, the medium was remove and 200 μL (0.5 μCi) of [methyl-^3H]-thymidine was added and placed at 37° C. in 5% CO2/95% air for 4 hours. Then, the wells were gently washed twice with PBS at 37° C., incubated with 200 μL of EtOH:Acetic acid (3:1) for 10 minutes and dried under the hood. 50 μL of Microscint™-O was added per well, the plate was sealed, agitated for 3 minutes, and read on the microplate scintillation and luminescence counter (TopCount NXT, Packard). Results are expressed as a percentage of cell viability of treated cells compared to untreated cells.

Series [6] has as its system HMEC-1 endothelial cells. Particulars: up to 50 μM, 24 hours incubation (FIG. 6). On the procedure: as §3
In series [7] the test system is NCI-H460 pulmonary carcinoma cells. Nature of the series: In vitro cell migration, NCI-H460 (Transwell / modified Boyden chambers). Type of series: cell-based, human. Particulars: various concentrations, dose-dependent manner (FIG. 2D). As for the experimental part: as §2
Series [8] deals with plasminogen activation by urokinase-type plasminogen activator (uPA) (Homo sapiens, UniProt P00749). Nature of the series: In vitro plasminogen activation by uPA (colorimetric VLK-pNA assay). Type of series: biochemical. Particulars: various concentrations of peptide (FIG. 1B). On the procedure:
The in vitro enzymatic activity of uPA was measured using a colorimetric assay. To study the effect of sMTf-derived peptides on plasminogen activation by uPA, the reaction was performed in plasminogen activation buffer (50 mM Tris/HCl (pH 7.5), 150 mM NaCl and 50 mM CaCl2) in a final volume of 200 μL. This incubation medium also contained 30 nM plasminogen and 15 μg of the chromogenic plasmin substrate D-Val-Leu-Lys p-nitroanilide (VLK-pNA). The reaction was started by the addition of 1 ng of uPA. In this assay, the cleavage of VLK-pNA results in a p-nitroaniline molecule that absorbs at 405 nm. The reaction product was monitored at 37° C. during 3 hours every 2 minutes using a Microplate Thermomax™ Autoreader. The velocity of the VLK-pNA hydrolysis reaction was calculated and results are expressed in mAU/min.

As for “Ac-F-R-C-L-V-E-N-A-G-D-V-A-F-V-R-H-K-K-K-NH2 (Ac-FRCLVENAGDVAFVRHKKK-NH2) [SEQ ID NO: 5]”, in series [1], the “inhibition of NCI-460 tumor growth” value stood at 45% and the NCI-460 tumor growth entry is given as “inhibit NCI-460 tumor growth”. In addition, the “in vivo neovascularisation of Matrigel implant (hemoglobin content)” value (from here on “in vivo neovascularisation”) in series [2] was “inhibit in vivo neovascularisation”. In addition, in series [3], the “inhibition of U87 tumor growth” value was 39% and the U87 tumor growth result is given as “inhibit U87 tumor growth”.
For the substance “Ac-F-R-C-L-V-E-N-A-G-D-V-P-F-V-R-H-NH2 (Ac-FRCLVENAGDVPFVRH-NH2) [SEQ ID NO: 7]”, the “in vivo neovascularisation” value in series [2] is “inhibit in vivo neovascularisation”.
On to “SEQ ID NO: 10: sMTf-derived peptide; sequence shown only as a drawing in Table II (FRCLVENAGDVAFVRHKKKKKKKHRVFAVDGANEVLCRF)”, for which, in series [1], the “inhibition of NCI-460 tumor growth” value amounted to 69% and the NCI-460 tumor growth entry was “inhibit NCI-460 tumor growth”.
Regarding “Ac-FRCLVENAGDVAFVRH-NH2 [SEQ ID NO: 2, Ac-F-R-C-L-V-E-N-A-G-D-V-A-F-V-R-H-NH2]”, the “migration of HMEC-1 cells” value in the series with HMEC-1 endothelial cells [4] was “inhibit the migration”. The “cellular toxicity on NCI-H460 cells” value in series [5] is “do not demonstrate any cellular toxicity”. Further, the “cellular toxicity on HMEC-1 cells” value in the series with HMEC-1 endothelial cells [6] is on record as “do not demonstrate any cellular toxicity”. In addition, the “migration of NCI-H460 cells” value in series [7] was “inhibit the migration”. Also, the “plasminogen cleavage by uPA” value in series [8] is recorded as “stimulates plasminogen cleavage by uPA in a dose-dependent manner”.
On to “Ac-F-R-C-L-V-E-N-R-G-D-V-P-F-V-K-R-E-R-F-NH2 (Ac-FRCLVENRGDVPFVKRERF-NH2) [SEQ ID NO: 13]”, for which, in the series with HMEC-1 endothelial cells [4], the “migration of HMEC-1 cells” value is “inhibit the migration”. Moreover, the “migration of NCI-H460 cells” value in series [7] is listed as “inhibit the migration”. In addition, the “in vivo neovascularisation” value in series [2] is reported as “inhibit in vivo neovascularisation”.
In the case of “Ac-YSGAFRMLAEGAGDVAFVKHKKK-NH2 (Ac-YSGAFRMLAEGAGDVAFVKHKKK-NH2) [SEQ ID NO: 9]”, in series [1], the “inhibition of NCI-460 tumor growth” value is reported as 42% and the NCI-460 tumor growth entry is “inhibit NCI-460 tumor growth”. For the same substance, the “in vivo neovascularisation” value in series [2] is recorded as “inhibit in vivo neovascularisation”.
In the case of “Ac-F-R-C-L-V-E-N-R-G-D-V-P-F-V-T-R-I-R-NH2 (Ac-FRCLVENRGDVPFVTRIR-NH2) [SEQ ID NO: 15]”, the “migration of HMEC-1 cells” value in the series on HMEC-1 endothelial cells [4] was “inhibit the migration”. For the same substance, the “inhibition of NCI-460 tumor growth” value in series [1] is given as 37%. For the same substance, the “migration of NCI-H460 cells” value in series [7] is “inhibit the migration”. The “in vivo neovascularisation” value in series [2] was “inhibit in vivo neovascularisation”. Also, in series [3], the “inhibition of U87 tumor growth” value was determined as 74% and the U87 tumor growth entry was “inhibit U87 tumor growth”.
